Test results from the CheMixHub viscosity set.
± gives the uncertainty stated by the source.

Assay: xn = mol fraction of the nth substance listed

O=[N+]([O-])c1ccccc1 + C1CCCCC1
viscosity [mPa·s]
Conditions	298.15 K	303.15 K	308.15 K	313.15 K
101 kPa, x2 = 0.1079	–	1.461 ± 0.017	–	–
101 kPa, x2 = 0.2065	–	1.325 ± 0.015	–	–
101 kPa, x2 = 0.49	–	1.036 ± 0.012	–	–
101 kPa, x2 = 0.5924	–	0.9727 ± 0.011	–	–
101 kPa, x2 = 0.701	–	0.9147 ± 0.011	–	–
101 kPa, x2 = 0.8319	–	0.844 ± 0.01	–	–
101 kPa, x2 = 0.8998	–	0.8149 ± 0.0097	–	–
101.3 kPa, x1 = 0.099	0.9069 ± 0.024	0.8365 ± 0.023	0.7722 ± 0.021	0.7123 ± 0.02
101.3 kPa, x1 = 0.2037	0.9519 ± 0.025	0.8775 ± 0.023	0.8109 ± 0.022	0.7485 ± 0.02
101.3 kPa, x1 = 0.297	–	0.9369 ± 0.025	0.8638 ± 0.023	0.7984 ± 0.022
101.3 kPa, x1 = 0.3968	1.089 ± 0.028	1 ± 0.026	0.925 ± 0.024	0.8553 ± 0.023
101.3 kPa, x1 = 0.4968	1.16 ± 0.029	1.067 ± 0.027	–	0.9115 ± 0.024
101.3 kPa, x1 = 0.5973	1.247 ± 0.031	1.153 ± 0.029	1.065 ± 0.027	0.9854 ± 0.025
101.3 kPa, x1 = 0.6959	1.346 ± 0.033	1.241 ± 0.031	1.147 ± 0.029	1.061 ± 0.027
101.3 kPa, x1 = 0.8011	–	1.367 ± 0.034	1.264 ± 0.031	1.167 ± 0.029
101.3 kPa, x1 = 0.893	1.603 ± 0.039	1.481 ± 0.036	1.358 ± 0.033	1.254 ± 0.031
101.3 kPa, x2 = 0.1908	–	–	1.385 ± 0.022	–

CCOCCOCCO + ClC(Cl)=C(Cl)Cl
298.15 K, 101.33 kPa
Conditions	viscosity [mPa·s]
x1 = 0.0123	0.859 ± 0.009
x1 = 0.0256	0.874 ± 0.009
x1 = 0.0478	0.903 ± 0.009
x1 = 0.0645	0.928 ± 0.009
x1 = 0.0824	0.956 ± 0.009
x1 = 0.097	0.979 ± 0.01
x1 = 0.1126	1.012 ± 0.01
x1 = 0.1488	1.081 ± 0.011
x1 = 0.1758	1.135 ± 0.011
x1 = 0.2057	1.196 ± 0.012
x1 = 0.2427	1.278 ± 0.013
x1 = 0.2829	1.371 ± 0.013
x1 = 0.3332	1.493 ± 0.015
x1 = 0.3756	1.61 ± 0.016
x1 = 0.4139	1.717 ± 0.017
x1 = 0.4562	1.843 ± 0.018
x1 = 0.4889	1.949 ± 0.019
x1 = 0.5216	2.063 ± 0.02
x1 = 0.5734	2.246 ± 0.022
x1 = 0.6176	2.412 ± 0.024
x1 = 0.6576	2.552 ± 0.026
x1 = 0.6972	2.699 ± 0.027
x1 = 0.7396	2.858 ± 0.029
x1 = 0.8033	3.119 ± 0.032
x1 = 0.854	3.335 ± 0.034
x1 = 0.8945	3.519 ± 0.036
x1 = 0.9227	3.64 ± 0.038
x1 = 0.9398	3.718 ± 0.039
x1 = 0.9556	3.786 ± 0.039
x1 = 0.9736	3.873 ± 0.04
x2 = 0.0112	3.936 ± 0.041

CCOCCOCCO + ClC=C(Cl)Cl
298.15 K, 101.33 kPa
Conditions	viscosity [mPa·s]
x1 = 0.0082	0.539 ± 0.006
x1 = 0.0263	0.563 ± 0.006
x1 = 0.0381	0.58 ± 0.006
x1 = 0.0517	0.602 ± 0.006
x1 = 0.0641	0.62 ± 0.006
x1 = 0.0756	0.639 ± 0.007
x1 = 0.0944	0.669 ± 0.007
x1 = 0.129	0.736 ± 0.007
x1 = 0.1724	0.823 ± 0.008
x1 = 0.2108	0.91 ± 0.009
x1 = 0.2459	0.997 ± 0.01
x1 = 0.2921	1.117 ± 0.011
x1 = 0.3336	1.235 ± 0.012
x1 = 0.3791	1.376 ± 0.014
x1 = 0.4231	1.528 ± 0.015
x1 = 0.457	1.659 ± 0.016
x1 = 0.4908	1.788 ± 0.018
x1 = 0.5204	1.902 ± 0.019
x1 = 0.557	2.042 ± 0.02
x1 = 0.5875	2.163 ± 0.021
x1 = 0.632	2.342 ± 0.023
x1 = 0.6736	2.519 ± 0.025
x1 = 0.7163	2.701 ± 0.027
x1 = 0.7635	2.912 ± 0.029
x1 = 0.7976	3.068 ± 0.031
x1 = 0.8333	3.224 ± 0.033
x1 = 0.8779	3.423 ± 0.035
x1 = 0.9203	3.621 ± 0.037
x1 = 0.9414	3.723 ± 0.039
x1 = 0.9717	3.857 ± 0.04
x2 = 0.018	3.895 ± 0.041

ClC(Cl)=C(Cl)Cl + CC1CCCCC1
303.15 K, 101 kPa
Conditions	viscosity [mPa·s]
x1 = 0.1166	0.637 ± 0.015
x1 = 0.2246	0.648 ± 0.014
x1 = 0.3047	0.658 ± 0.013
x1 = 0.4335	0.679 ± 0.012
x1 = 0.5554	0.708 ± 0.011
x1 = 0.6523	0.734 ± 0.01
x1 = 0.77	0.762 ± 0.009
x1 = 0.8108	0.773 ± 0.009
x1 = 0.8864	0.79 ± 0.008
x1 = 0.9342	0.801 ± 0.008

CCCCCCCC + CCCO
Conditions	viscosity [mPa·s]
293.15 K, 101.3 kPa, x2 = 0.2756	0.602 ± 0.011
293.15 K, 101.3 kPa, x2 = 0.4165	0.699 ± 0.012
293.15 K, 101.3 kPa, x2 = 0.5351	0.825 ± 0.014
293.15 K, 101.3 kPa, x2 = 0.6355	0.967 ± 0.016
293.15 K, 101.3 kPa, x2 = 0.6822	1.039 ± 0.017
293.15 K, 101.3 kPa, x2 = 0.7221	1.128 ± 0.018
293.15 K, 101.3 kPa, x2 = 0.7934	1.295 ± 0.02
293.15 K, 101.3 kPa, x2 = 0.8726	1.545 ± 0.024
293.15 K, 101.3 kPa, x2 = 0.9243	1.746 ± 0.027
293.15 K, 101.3 kPa, x2 = 0.9752	2.003 ± 0.03
298.15 K, 101.3 kPa, x2 = 0.114	0.511 ± 0.009
298.15 K, 101.3 kPa, x2 = 0.2756	0.561 ± 0.01
298.15 K, 101.3 kPa, x2 = 0.4165	0.645 ± 0.011
298.15 K, 101.3 kPa, x2 = 0.5351	0.752 ± 0.013
298.15 K, 101.3 kPa, x2 = 0.6356	0.875 ± 0.015
298.15 K, 101.3 kPa, x2 = 0.6823	0.939 ± 0.015
298.15 K, 101.3 kPa, x2 = 0.7221	1.016 ± 0.016
298.15 K, 101.3 kPa, x2 = 0.7934	1.162 ± 0.019
298.15 K, 101.3 kPa, x2 = 0.8726	1.403 ± 0.022
298.15 K, 101.3 kPa, x2 = 0.9243	1.554 ± 0.024
298.15 K, 101.3 kPa, x2 = 0.9752	1.79 ± 0.027
298.15 K, 101.33 kPa, x2 = 0.1018	0.535 ± 0.008
298.15 K, 101.33 kPa, x2 = 0.1778	0.558 ± 0.009
298.15 K, 101.33 kPa, x2 = 0.3151	0.617 ± 0.01
298.15 K, 101.33 kPa, x2 = 0.4271	0.696 ± 0.011
298.15 K, 101.33 kPa, x2 = 0.5512	0.809 ± 0.013
298.15 K, 101.33 kPa, x2 = 0.6801	0.987 ± 0.016
298.15 K, 101.33 kPa, x2 = 0.7955	1.227 ± 0.021
298.15 K, 101.33 kPa, x2 = 0.9677	1.824 ± 0.034
303.15 K, 101.3 kPa, x2 = 0.114	0.482 ± 0.009
303.15 K, 101.3 kPa, x2 = 0.2756	0.522 ± 0.01
303.15 K, 101.3 kPa, x2 = 0.4165	0.592 ± 0.011
303.15 K, 101.3 kPa, x2 = 0.5351	0.686 ± 0.012
303.15 K, 101.3 kPa, x2 = 0.6355	0.795 ± 0.013
303.15 K, 101.3 kPa, x2 = 0.6822	0.857 ± 0.014
303.15 K, 101.3 kPa, x2 = 0.7221	0.917 ± 0.015
303.15 K, 101.3 kPa, x2 = 0.7934	1.045 ± 0.017
303.15 K, 101.3 kPa, x2 = 0.8726	1.227 ± 0.019
303.15 K, 101.3 kPa, x2 = 0.9243	1.383 ± 0.022
303.15 K, 101.3 kPa, x2 = 0.9752	1.579 ± 0.024
308.15 K, 101.3 kPa, x2 = 0.0417	0.458 ± 0.009
308.15 K, 101.3 kPa, x2 = 0.1389	0.466 ± 0.009
308.15 K, 101.3 kPa, x2 = 0.2682	0.497 ± 0.009
308.15 K, 101.3 kPa, x2 = 0.3477	0.528 ± 0.01
308.15 K, 101.3 kPa, x2 = 0.4105	0.558 ± 0.01
308.15 K, 101.3 kPa, x2 = 0.4648	0.591 ± 0.011
308.15 K, 101.3 kPa, x2 = 0.525	0.636 ± 0.011
308.15 K, 101.3 kPa, x2 = 0.5911	0.694 ± 0.012
308.15 K, 101.3 kPa, x2 = 0.6512	0.757 ± 0.013
308.15 K, 101.3 kPa, x2 = 0.7011	0.818 ± 0.014
308.15 K, 101.3 kPa, x2 = 0.7397	0.873 ± 0.014
308.15 K, 101.3 kPa, x2 = 0.7864	0.95 ± 0.016
308.15 K, 101.3 kPa, x2 = 0.8382	1.05 ± 0.017
308.15 K, 101.3 kPa, x2 = 0.8827	1.153 ± 0.018
308.15 K, 101.3 kPa, x2 = 0.9289	1.279 ± 0.02
